Laboratory results from PMC5789847, “Bismuth antimicrobial drugs serve as broad-spectrum metallo-β-lactamase inhibitors” (Nature Communications, 2018).

How the values were obtained:
IMP-4 = assay: IC50 enzyme inhibition assay; type: biochemical; conditions: MER substrate
Description: Freshly prepared 50 nM of Zn2-NDM-1, Zn2-VIM-2, or Zn2-IMP-4 in 50 mM HEPES/Na pH 7.0, 100 mM NaCl were first incubated with various concentrations of CBS for 1 h at 25 °C, then mixed with equal volume of 0.2 mM MER. The assay was performed in a 1 cm quartz cuvette using the kinetic mode on a Varian Cary50 UV-visible spectrophotometer at 25 °C. The decrease in absorbance at 300 nm due to ring-opening of MER was monitored every second for a duration of 10 min until the reaction was completed. The initial rates were extracted and calculated from each reaction curves for fitting IC50 curves.

NDM-HK [1] = assay: Murine peritonitis infection, mucin-free model; type: in vivo, BALB/c mice; conditions: without mucin; MER 50 mg kg^−1 + CBS 50 mg kg^−1, up to 86 h
Excerpt: All experiments were approved by, and performed in accordance with the guidelines approved by Committee on the Use of Live Animals in Teaching and Research (CULATR), the University of Hong Kong. A total of 6–8-week-old, female BALB/c mice (18–22 g) were purchased from Charles River Laboratories, Inc. and were used in all mouse studies. The animals were randomized to cages for each experiment.
In mucin-free survival experiment, the mice were infected with a dose of 5 × 10^7 CFU of NDM-HK in PBS. The mice received monotherapy of MER (50 mg kg^−1) or CBS (50 mg kg^−1), or combination therapy 0.5 h post infection (n = 5 for each group). Other experimental operations and conditions were kept the same as that in mucin-assisted model. Body weights and mice survival were monitored for endpoint till endpoint of the experiment.

NDM-Rosetta OX = assay: Microdilution MIC assay; type: cell-based, E. coli; conditions: NDM-Rosetta OX
Description: For the test of NDM-Rosetta OX, the growth condition briefly goes as follow. Overnight culture of NDM-Rosetta was 1000-fold diluted into fresh LB medium and regrew to OD ~0.6. The overexpression of NDM-1 was induced by addition of 1 mM isopropyl β-D-1-thiogalactopyranoside (IPTG) for 4 h at 37 °C. The following susceptibility test was performed as described in the Microdilution MIC and MBC assay section in the methodology by using the resulting bacterial pellets with the supplementation of 200 µM IPTG.
Other procedures were kept strictly the same.

NDM-HK [2] = assay: Resistance study: MPC and mutation frequency; type: cell-based, E. coli
[3] = test system: NDM-K. pneumonia (NDM-1^+); assay: Microdilution MIC/MBC and checkerboard assay; type: cell-based, Klebsiella pneumonia
Description: MIC values were determined by standard broth micro-dilution method (Clinical and Laboratory Standards Institute (CLSI) M100-S20, 2010)[64]. Briefly, bacterial cells were cultured in LB broth overnight at 37 °C at 250 rpm and the OD was measured at 600 nm (OD600). The bacterial density was adjusted to about 1 × 10^6 CFU mL^−1 and checked by CFU counting on agar plates afterwards. Tested antibiotics or Bi(III) compounds were added triplicately into individual wells of flat-bottomed 96-well plates and performed 2-fold serial dilution, followed by addition of prepared bacterial inocula. The plate was then incubated at 37 °C for overnight. […] The MIC was determined as the lowest concentration of a drug that could inhibit the growth of microorganism by both visual reading and OD reading at 600 nm using a microtiter plate reader.
Resulting growth (or lack of growth) was examined after overnight culturing and the lowest concentration that inhibits 99.9% of the original culture was taken as MBC.
Other procedures were kept strictly the same. […] Synergism was defined when FICI ≤ 0.5, indifference was defined when FICI > 0.5 and < 4, and antagonism was defined when FICI≥4[65]. […] All of the determinations were performed at least in triplicate on different days.

NDM-HK [4] = assay: In vitro cell infection assay (MDCK cells); type: cell-based, E. coli
Description: MDCK cell was cultured in minimum essential Media (MEM) supplemented with fetal bovine serum (FBS, 10%) and grown at 37 °C in 5% CO2-humidified atmosphere for 3 days. About 1.0 × 10^5 MDCK cells were seeded per well in 24-well plates and incubated as described above for 48 h to ensure confluency. Logarithmic cultures of NDM-HK were washed with PBS for three times and re-suspended in MEM/10% FBS resulting in the initial bacterial density of about 2.0 × 10^7 CFU mL^−1. Then, 500 μL of bacterial suspension were added to each well and substituted for the previous MDCK culture medium. The plates were centrifuged at 800 × g for 10 min and then incubated for another 6 h, executing the bacterial infection at multiplicity of infection (MOI) of 200. We then used two infection models for examination, viz, the cell-associated bacterial infection and cell-invaded bacterial infection. The cell-associated bacteria are herein defined as bacteria that attach to, penetrate, or transcytose in MDCK cells, while the cell-invaded bacteria are defined as bacteria that penetrate or transcytose MDCK cells. For the cell-invaded infection, the infected cells were incubated in culture medium supplemented with ciprofloxacin (100 µg mL^−1) for 1 h to remove extracellular bacteria. Then, the treated cells were washed vigorously with PBS for six times and replenished with culture medium. For the cell-associated infection, the infected cells were only washed vigorously with PBS for six times to remove unbound bacteria. The infected MDCK cells were then exposed to either MER or CBS, or their combination for overnight under identical cell culture condition. Cells in the absence of drugs served as a control. The bacterial loads were examined by lysing MDCK cells with 1% Triton X-100 in PBS and serially diluting the resulting lysates to enumerate bacterial colonies by agar plating. The assay was performed in triplicate, repeated three times, and results were expressed as average ± SD.

For colloidal bismuth subcitrate [CBS], the IC50 (IMP-4; IMP-4 50 nM, 1 h preincubation) was 700 ± 80 nM, the “maximal inhibition of MBL activity” value (IMP-4; IMP-4, dose-dependent) was “approximately 90%” and the “mice survived, MER and CBS co-administrated” value (NDM-HK [1]) was 40%. The “MIC of MER in combination with CBS at 16 µg mL-1” value (NDM-Rosetta OX) was 128 µg/mL, the “MIC of MER in combination with CBS at 32 µg mL-1” value (NDM-Rosetta OX) was 128 µg/mL and the “MIC of MER in combination with CBS at 256 µg mL-1” value (NDM-Rosetta OX) was 32 µg/mL. The observed mutation frequency (NDM-HK [2]; MER with increasing CBS concentration) was 1.31 × 10^−7 to 9.84 × 10^−10, the “MER MPC with CBS” value (NDM-HK [2]; ≥128 µg mL^−1 CBS) was 2 fold MIC and the “MBC of MER in combination with compound at 32 µg mL^-1” value ([3]; NDM-K. pneumonia (NDM-KP)) was 8 µg/mL. For the same substance, the “MIC of MER in combination with compound at 32 µg mL^-1” value ([3]; NDM-K. pneumonia (NDM-KP)) was 4 µg/mL, the “MBC of Bi(III) compound alone” value ([3]; NDM-KP) was > 256 µg/mL and the “MIC of Bi(III) compound alone” value ([3]; NDM-KP) was > 256 µg/mL. For the same substance, the FICI ([3]; NDM-KP, MER + compound, 256 µg mL^-1 set as MIC of Bi(III)) was 0.375, the “decrease in the bacterial load, bacteria-invaded model” value (NDM-HK [4]; MER and CBS combination) was “more than 100 fold” and the “viable bacterial loads, cell-associated infection” value (NDM-HK [4]; MOI 200, MER and CBS (32 μg mL^−1) in combination, overnight) was ~10^4 CFU.
